According to PubChem BioAssay (NCI):
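Each compound was tested at five concentrations against cells in 96-well plates for 48 hours. Abbreviation: GI50, concentration required for 50% inhibition of growth. TGI marks complete inhibition of growth.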

Legend:
Assay in all cases: NCI-60 cell line screen, 48 h
[1] = test system: HS 578T breast
[2] = test system: UO-31 renal
[3] = test system: MDA-MB-435
[4] = test system: M14 melanoma
[5] = test system: ACHN renal
[6] = test system: LOX IMVI melanoma
[7] = test system: SK-MEL-28 melanoma
[8] = test system: NCI-H23 lung
[9] = test system: SF-268 CNS
[10] = test system: HCT-15 colon
[11] = test system: SF-295 CNS
[12] = test system: BT-549 breast
[13] = test system: UACC-62 melanoma
[14] = test system: HCT-116 colon
[15] = test system: T-47D breast
[16] = test system: PC-3 prostate
[17] = test system: SNB-19 CNS
[18] = test system: HL-60(TB) leukemia
[19] = test system: 786-0 renal
[20] = test system: OVCAR-8 ovarian
[21] = test system: RPMI-8226 leukemia
[22] = test system: TK-10 renal
[23] = test system: SW-620 colon
[24] = test system: MALME-3M melanoma
[25] = test system: SF-539 CNS
[26] = test system: OVCAR-3 ovarian
[27] = test system: SN12C renal
[28] = test system: EKVX NSCLC
[29] = test system: A549 NSCLC
[30] = test system: HCC-2998 colon
[31] = test system: NCI-H226 lung
[32] = test system: SR leukemia
[33] = test system: RXF 393 renal
[34] = test system: HOP-62 NSCLC
[35] = test system: SK-MEL-5 melanoma
[36] = test system: HT29 colon
[37] = test system: OVCAR-5 ovarian
[38] = test system: UACC-257 melanoma
[39] = test system: DU-145 prostate
[40] = test system: A498 renal
[41] = test system: OVCAR-4 ovarian
[42] = test system: CCRF-CEM leukemia
[43] = test system: MCF7 breast
[44] = test system: U251 CNS
[45] = test system: K-562 leukemia
[46] = test system: CAKI-1 renal
[47] = test system: MOLT-4 leukemia
[48] = test system: NCI/ADR-RES ovarian
[49] = test system: NCI-H460 lung
[50] = test system: MDA-MB-231 breast
[51] = test system: SNB-75 CNS
[52] = test system: NCI-H522 lung
[53] = test system: KM12 colon
[54] = test system: COLO 205 colon
[55] = test system: IGROV1 ovarian
[56] = test system: HOP-92 NSCLC

## Fc1ccc(-c2nn3c(CNc4ccccc4)nnc3s2)cc1
[1]
  GI50: 49.7 µM
  TGI: > 100 µM
[2]
  GI50: 42.8 µM
  TGI: > 100 µM
[3]
  GI50: 18.7 µM
  TGI: 51.6 µM
[4]
  GI50: 35.5 µM
  TGI: > 100 µM
[5]
  GI50: 66.8 µM
  TGI: > 100 µM
[6]
  GI50: 29.4 µM
  TGI: 96.7 µM
[7]
  GI50: 42.2 µM
  TGI: > 100 µM
[8]
  GI50: 27.2 µM
  TGI: > 100 µM
[9]
  GI50: 64.3 µM
  TGI: > 100 µM
[10]
  GI50: 45 µM
  TGI: > 100 µM
[11]
  GI50: 20.5 µM
  TGI: 59.3 µM
[12]
  GI50: 39.1 µM
  TGI: > 100 µM
[13]
  GI50: 18.4 µM
  TGI: 53.7 µM
[14]
  GI50: 26.5 µM
  TGI: > 100 µM
[15]
  GI50: 29.6 µM
  TGI: > 100 µM
[16]
  GI50: 31 µM
  TGI: > 100 µM
[17]
  GI50: 33.6 µM
  TGI: > 100 µM
[18]
  GI50: > 100 µM
  TGI: > 100 µM
[19]
  GI50: 56.2 µM
  TGI: > 100 µM
[20]
  GI50: 34.7 µM
  TGI: > 100 µM
[21]
  GI50: 6.99 µM
  TGI: > 100 µM
[22]
  GI50: 30.2 µM
  TGI: > 100 µM
[23]
  GI50: 40.6 µM
  TGI: > 100 µM
[24]
  GI50: 21.2 µM
  TGI: 94.6 µM
[25]
  GI50: 33.6 µM
  TGI: > 100 µM
[26]
  GI50: 12.2 µM
  TGI: 49.1 µM
[27]
  GI50: 22.7 µM
  TGI: 90.8 µM
[28]
  GI50: 27.8 µM
  TGI: > 100 µM
[29]
  GI50: 36.7 µM
  TGI: > 100 µM
[30]
  GI50: 0.585 µM
  TGI: 25 µM
[31]
  GI50: 45.5 µM
  TGI: > 100 µM
[32]
  GI50: > 100 µM
  TGI: > 100 µM
[33]
  GI50: > 100 µM
  TGI: > 100 µM
[34]
  GI50: 33.8 µM
  TGI: > 100 µM
[35]
  GI50: 17.5 µM
  TGI: 36.7 µM
[36]
  GI50: 39.2 µM
  TGI: > 100 µM
[37]
  GI50: 30.2 µM
  TGI: > 100 µM
[38]
  GI50: 36.2 µM
  TGI: > 100 µM
[39]
  GI50: 56.6 µM
  TGI: > 100 µM
[40]
  GI50: 37 µM
  TGI: > 100 µM
[41]
  GI50: 90.7 µM
  TGI: > 100 µM
[42]
  GI50: 36.2 µM
  TGI: > 100 µM
[43]
  GI50: 60.2 µM
  TGI: > 100 µM
[44]
  GI50: 23.5 µM
  TGI: > 100 µM
[45]
  GI50: 41.6 µM
  TGI: > 100 µM
[46]
  GI50: 19.4 µM
  TGI: 49.2 µM
[47]
  GI50: 27 µM
  TGI: > 100 µM
[48]
  GI50: 13.6 µM
  TGI: 53.6 µM
[49]
  GI50: 52.3 µM
  TGI: > 100 µM
[50]
  GI50: 27.9 µM
  TGI: > 100 µM
[51]
  GI50: 52.2 µM
  TGI: > 100 µM
[52]
  GI50: 34.5 µM
  TGI: > 100 µM
[53]
  GI50: 14.9 µM
  TGI: > 100 µM
[54]
  GI50: 11.2 µM
  TGI: > 100 µM
[55]
  GI50: 49.3 µM
  TGI: > 100 µM
[56]
  GI50: 17.5 µM
  TGI: > 100 µM
